Source: patent US20180030093A1, “SELF-ASSEMBLING ULTRASHORT ALIPHATIC CYCLIC PEPTIDES FOR BIOMEDICAL APPLICATIONS” (Agency for Science, Technology and Research, priority 2015, published 2018)
“Also recorded” adds a separate entry of the source. Non-standard residues stand in square brackets, D forms with d. Residues, ends and D or L forms follow the SMILES beside them.

What was measured:
[1] = Solubility of the cyclic peptides in MilliQ water
Procedure: (§1) In order to determine the minimum gelation concentration in water, the cyclic peptides were attempted to be dissolved in MilliQ water.
(§2) In order to introduce a charged amino acid residue cLK6 was synthesized and its ability to form hydrogels was investigated. For this purpose cLK6 was dissolved at a concentration of 10 mg/mL in water.

[2] = Gelation / self-assembly in water; format: physicochemical
Procedure: as §1, §2

[3] = Stimuli response of gelation to salt (1× PBS); format: physicochemical; conditions: 5 mg/mL in 1× PBS, after vortexing
Procedure: Our previous studies on the parent peptide Ac-LIVAGK-NH2 have shown stimuli responsive behaviour to salt, which allows to reduce the minimum gelation concentration by 50%. […] For this purpose, cLK6 was dissolved in 9 parts of water and afterwards 1 part of 10× PBS solution was added.

[4] = stimuli responsive behaviour to salt; applicant's previous studies; cited from earlier work

CC[C@H](C)[C@@H]1NC(=O)[C@@H](CC(C)C)NC(=O)[C@H](CCCCN)NC(=O)CNC(=O)[C@H](C)NC(=O)[C@@H](C(C)C)NC1=O [cLK6, cLIVAGK] (cyclo([dL]I[dV]AGK))
solubility in water at 10 mg/mL ([1]; 10 mg/mL in water): full solubility was only achieved, when the peptide solution was heated at 60 °C for about 2 h
gel formation ([2]; 5 mg/mL in water, prepared in the same way, overnight): clear hydrogel was formed
gel formation ([2]; 10 mg/mL in water, heated at 60° C., then standing at room temperature): opaque sol gel was formed
gel formation ([2]; peptide concentration further reduced below 5 mg/mL in water): no hydrogel formation
gel formation in salt solution [3]: only peptide aggregation, resulting in precipitation

CC[C@H](C)[C@@H]1NC(=O)[C@@H](CC(C)C)NC(=O)[C@H](CO)NC(=O)CNC(=O)[C@H](C)NC(=O)[C@@H](C(C)C)NC1=O [cLS6, cLIVAGS] (cyclo([dL]I[dV]AGS))
solubility in water ([1]; MilliQ water): low solubility; also recorded: limited water solubility
self-assembly in water ([2]; dissolved in hexafluoroisopropanol (HFIP) and dropped slowly into water): gelatinous “precipitate” is formed; also recorded: still displays self-assembling properties

Ac-LIVAGK-NH2 [linear parent ultrashort peptide of cLK6, previously reported by the inventors]
reduction of the minimum gelation concentration by salt [4]: 50%
